Laboratory results from patent US20240398817A1, “CARDIO- AND RENOSAFE ANTIDIABETIC THERAPY” (priority 2018, published 2024).

System: patients with type 2 diabetes at high vascular risk
Test: Cardiovascular and Renal Outcomes Trial: linagliptin 5 mg once daily vs placebo on top of standard of care
Format: in vivo
Details: for Hazard ratio for hospitalised heart failure: vs placebo
Method: The effect of linagliptin on cardiovascular risk in adult patients with type 2 diabetes mellitus and with increased CV risk evidenced by a history of established macrovascular or renal disease (e.g. as defined herein) was evaluated in a multi-center, multi-national, randomized, double-blind parallel group trial. The trial compared the risk of experiencing a major adverse cardiovascular event (MACE) between linagliptin and placebo when these were added to and used concomitantly with standard of care treatments for diabetes (HbA1c), cardiovascular risk factors and renal disease.
The primary endpoint in this trial was the time to first occurrence of three point (3P) MACE. A major adverse cardiac event was defined as a cardiovascular death or a nonfatal myocardial infarction (MI) or a nonfatal stroke. The statistical analysis plan tested for non-inferiority for the occurrence of (3P) MACE. […] The secondary endpoint was a renal composite, defined as renal death or sustained end stage renal disease or sustained decrease of 40% or more in eGFR.
Type 2 diabetes patient with insufficient glycemic control (naïve or pre-treated with any antidiabetic background medication, excluding treatment with GLP-1 receptor agonists, DPP-4inhibitors or SGLT-2 inhibitors if ≥consecutive 7 days, e.g. having HbA1c 6.5-10%), and high risk of cardiovascular events, e.g. defined by: • albuminuria (micro or macro) and previous macrovascular disease: e.g. defined according to Condition I as indicated below; • and/or • impaired renal function: e.g. as defined according to Condition II as indicated below;
Background and aims: People with type 2 diabetes (T2D) are at increased risk for hospitalization for heart failure (hHF), particularly in the setting of concomitant cardiovascular (CV) and/or kidney disease. […] Here we present analyses of HF outcomes with the DPP-4 inhibitor linagliptin (LINA) vs. placebo (PBO) from a Cardiovascular and Renal Outcomes Trial assessing cardiovascular safety and renal microvascular outcome in patients with type 2 diabetes at high vascular risk, a large CV outcomes trial that enrolled participants with T2D at high risk for hHF due to concomitant CV and/or chronic kidney disease. Materials and methods: People with T2D and concomitant CV and/or kidney disease were randomized to receive LINA 5 mg, or PBO once daily (1:1), on top of standard of care. All hHF, CV outcomes, and deaths were centrally adjudicated, with individual and composite HF-related outcomes analyses comparing LINA vs. placebo. Investigator-reported HF-related adverse events, whether or not confirmed by adjudication, were also analyzed. A Cox proportional hazards model adjusting for region and history of HF was used for analyses of first events. Recurrent hHF events were analyzed using a negative binomial model.
Methods: The present Cardiovascular and Renal Outcomes Trial randomized people with T2D and i) concomitant CV disease with UACR >30 mg/g or ii) prevalent CKD (i.e. GFR <45 ml/min/1.73m2 and/or UACR >200 mg/g) to receive the DPP-4 inhibitor linagliptin (5 mg) or placebo once daily in a double-blind fashion. The primary CV endpoint was 3P-MACE, with a key secondary kidney endpoint (adjudicated ESKD, renal death, or sustained ≥40% decrease in eGFR from baseline) and other renal outcomes (including albuminuria and eGFR slope) also assessed. Subgroups were assessed by baseline kidney function (eGFR ≥/<45 ml/min/1.73m2and eGFR ≥/<30, 45 or 60 ml/min/1.73m2).
Adults with type 2 diabetes, HbA1c 6.5-10.0% inclusive, and high CV risk were eligible for inclusion. […] Macrovascular disease eligibility criteria was based on documented and confirmed history of myocardial infarction, coronary artery disease, stroke, carotid artery disease, or peripheral artery disease. Participants with end-stage kidney disease (ESKD), defined as eGFR <15 or requiring maintenance dialysis, were excluded.

[1] = CKD prognosis by KDIGO Very high
[2] = Calcium channel blockers (CCB) No
[3] = Calcium channel blockers (CCB) Yes
[4] = Cardiorenal risk: Albuminuria and previous macrovascular disease plus eGFR 45-75 mL/min/1.73 m^2 with an UACR >200 mg/g
[5] = Cardiorenal risk: Albuminuria and previous macrovascular disease plus renal impairment (eGFR 15-<45 mL/min/1.73 m^2 with any UACR mg/g)
[6] = Cardiorenal risk: Albuminuria and previous macrovascular disease without eGFR>45 mL/min/1.73 m2
[7] = Duration of type 2 diabetes >5 to <10 years
[8] = Duration of type 2 diabetes ≤5 years

Compound: CC#CCn1c(N2CCC[C@@H](N)C2)nc2c1c(=O)n(Cc1nc(C)c3ccccc3n1)c(=O)n2C [Linagliptin, 1-[(4-methyl-quinazolin-2-yl)methyl]-3-methyl-7-(2-butyn-1-yl)-8-(3-(R)-amino-piperidin-1-yl)-xanthine]
- 3-point MACE: hazard ratio vs placebo (Body mass index ≥30 kg/m^2): 1.06
- 3-point MACE: patients with event/patients analyzed (Body mass index ≥30 kg/m^2): 243/1978
- Key secondary kidney outcome: hazard ratio vs placebo (Body mass index ≥30 kg/m^2): 0.96
- Key secondary kidney outcome: patients with event/patients analyzed (Body mass index ≥30 kg/m^2): 165/1978
- Patients with event/patients analysed, hospitalised heart failure (Body mass index ≥30 kg/m^2): 131/1978
- Hazard ratio for hospitalised heart failure (Body mass index ≥30 kg/m^2): 0.86
- 3-point MACE: hazard ratio vs placebo (CKD prognosis by KDIGO High): 1.05
- 3-point MACE: patients with event/patients analyzed (CKD prognosis by KDIGO High): 111/995
- Key secondary kidney outcome: patients with event/patients analyzed (CKD prognosis by KDIGO High): 57/995
- Patients with event/patients analysed, hospitalised heart failure (CKD prognosis by KDIGO High): 45/995
- 3-point MACE: hazard ratio vs placebo (CKD prognosis by KDIGO Low): 1.13
- 3-point MACE: patients with event/patients analyzed (CKD prognosis by KDIGO Low): 11/232
- Key secondary kidney outcome: patients with event/patients analyzed (CKD prognosis by KDIGO Low): 8/232
- Patients with event/patients analysed, hospitalised heart failure (CKD prognosis by KDIGO Low): 2/232
- 3-point MACE: hazard ratio vs placebo (CKD prognosis by KDIGO Medium): 0.89
- 3-point MACE: patients with event/patients analyzed (CKD prognosis by KDIGO Medium): 61/766
- Key secondary kidney outcome: patients with event/patients analyzed (CKD prognosis by KDIGO Medium): 14/766
- Patients with event/patients analysed, hospitalised heart failure (CKD prognosis by KDIGO Medium): 18/766
- 3-point MACE: hazard ratio vs placebo [1]: 1.04
- 3-point MACE: patients with event/patients analyzed [1]: 250/1499
- Key secondary kidney outcome: patients with event/patients analyzed [1]: 248/1499
- Patients with event/patients analysed, hospitalised heart failure [1]: 144/1499
- Patients with event/patients analysed, hospitalised heart failure [2]: 113/2061
- Hazard ratio for hospitalised heart failure [2]: 0.86
- Patients with event/patients analysed, hospitalised heart failure [3]: 96/1433
- Hazard ratio for hospitalised heart failure [3]: 0.94
- 3-point MACE: hazard ratio vs placebo (Calcium channel blockers No): 0.91
- 3-point MACE: patients with event/patients analyzed (Calcium channel blockers No): 239/2061
- Key secondary kidney outcome: hazard ratio vs placebo (Calcium channel blockers No): 1.03
- Key secondary kidney outcome: patients with event/patients analyzed (Calcium channel blockers No): 155/2061
- 3-point MACE: hazard ratio vs placebo (Calcium channel blockers Yes): 1.21
- 3-point MACE: patients with event/patients analyzed (Calcium channel blockers Yes): 195/1433
- Key secondary kidney outcome: hazard ratio vs placebo (Calcium channel blockers Yes): 1.05
- Key secondary kidney outcome: patients with event/patients analyzed (Calcium channel blockers Yes): 172/2860
- 3-point MACE: hazard ratio vs placebo (Cardiorenal risk Cat A): 0.97
- 3-point MACE: patients with event/patients analyzed (Cardiorenal risk Cat A): 117/1361
- Key secondary kidney outcome: hazard ratio vs placebo (Cardiorenal risk Cat A): 1.22
- Key secondary kidney outcome: patients with event/patients analyzed (Cardiorenal risk Cat A): 38/1361
- 3-point MACE: hazard ratio vs placebo (Cardiorenal risk Cat B): 0.92
- 3-point MACE: patients with event/patients analyzed (Cardiorenal risk Cat B): 86/394
- Key secondary kidney outcome: hazard ratio vs placebo (Cardiorenal risk Cat B): 0.79
- Key secondary kidney outcome: patients with event/patients analyzed (Cardiorenal risk Cat B): 51/394
- 3-point MACE: hazard ratio vs placebo (Cardiorenal risk Cat C): 0.76
- 3-point MACE: patients with event/patients analyzed (Cardiorenal risk Cat C): 33/253
- Key secondary kidney outcome: hazard ratio vs placebo (Cardiorenal risk Cat C): 1.53
- Key secondary kidney outcome: patients with event/patients analyzed (Cardiorenal risk Cat C): 23/253
- 3-point MACE: hazard ratio vs placebo (Cardiorenal risk Cat D): 1.12
- 3-point MACE: patients with event/patients analyzed (Cardiorenal risk Cat D): 163/1153
- Key secondary kidney outcome: hazard ratio vs placebo (Cardiorenal risk Cat D): 1.01
- Key secondary kidney outcome: patients with event/patients analyzed (Cardiorenal risk Cat D): 180/1153
- 3-point MACE: hazard ratio vs placebo (Cardiorenal risk Cat E): 1.13
- 3-point MACE: patients with event/patients analyzed (Cardiorenal risk Cat E): 32/309
- Key secondary kidney outcome: hazard ratio vs placebo (Cardiorenal risk Cat E): 1.04
- Key secondary kidney outcome: patients with event/patients analyzed (Cardiorenal risk Cat E): 35/309
- Patients with event/patients analysed, hospitalised heart failure [4]: 67/647
- Hazard ratio for hospitalised heart failure [4]: 0.81
- Patients with event/patients analysed, hospitalised heart failure [5]: 95/14612
- Hazard ratio for hospitalised heart failure [5]: 0.86
- Patients with event/patients analysed, hospitalised heart failure [6]: 46/1361
- Hazard ratio for hospitalised heart failure [6]: 1.19
- 3-point MACE: hazard ratio vs placebo (Diuretics No): 1.15
- 3-point MACE: patients with event/patients analyzed (Diuretics No): 159/1602
- Key secondary kidney outcome: hazard ratio vs placebo (Diuretics No): 1.06
- Key secondary kidney outcome: patients with event/patients analyzed (Diuretics No): 129/1602
- Patients with event/patients analysed, hospitalised heart failure (Diuretics No): 53/1602
- Hazard ratio for hospitalised heart failure (Diuretics No): 1.26
- 3-point MACE: hazard ratio vs placebo (Diuretics Yes): 0.97
- 3-point MACE: patients with event/patients analyzed (Diuretics Yes): 275/1892
- Key secondary kidney outcome: hazard ratio vs placebo (Diuretics Yes): 1.04
- Key secondary kidney outcome: patients with event/patients analyzed (Diuretics Yes): 198/1892
- Patients with event/patients analysed, hospitalised heart failure (Diuretics Yes): 156/1892
- Hazard ratio for hospitalised heart failure (Diuretics Yes): 0.83
- 3-point MACE: hazard ratio vs placebo [7]: 1.01
- 3-point MACE: patients with event/patients analyzed [7]: 73/696
- Key secondary kidney outcome: hazard ratio vs placebo [7]: 0.94
- Key secondary kidney outcome: patients with event/patients analyzed [7]: 56/699
- Patients with event/patients analysed, hospitalised heart failure [7]: 42/696
- Hazard ratio for hospitalised heart failure [7]: 0.96
- 3-point MACE: hazard ratio vs placebo [8]: 0.98
- 3-point MACE: patients with event/patients analyzed [8]: 45/521
- Key secondary kidney outcome: hazard ratio vs placebo [8]: 1.97
- Key secondary kidney outcome: patients with event/patients analyzed [8]: 41/521
- Patients with event/patients analysed, hospitalised heart failure [8]: 18/521
- Hazard ratio for hospitalised heart failure [8]: 0.82
- 3-point MACE: hazard ratio vs placebo (Duration of type 2 diabetes ≥10 years): 1.03
